One test has as its system RPMI 8226 cells. Nature of the test: XTT cytotoxicity, RPMI 8226. The format is cell-based. The conditions noted are these: Homo sapiens; RPMI 8226, multiple myeloma, non-resistant; read-out: IC50. Here is the method:
(§1) The cytotoxic activity of the novel family was evaluated against various tumor cells, including myeloma cells, acute lymphoblastic leukemia cells, acute monocytic leukemia cells, chronic myelogenous leukemia cells, pancreatic cancer cells, breast cancer cells, uterine sarcoma cells, cervix adenocarcinoma cells, ovary cancer cells, melanoma cells, osteosarcoma cells, prostate cancer cells, lung cancer cells, neuroblastoma cells and colorectal adenocarcinoma cells by XTT assay.

Another test relates to RPMI-DOX40 cells. Nature of the test: XTT cytotoxicity, RPMI-DOX40. The settings on record: for IC50: RPMI-DOX40, multiple myeloma, P-gp overexpression, read-out: IC50; for IC50 ratio between resistant and non-resistant cells: RPMI-DOX40 / RPMI 8226. The format is cell-based. Here is the method: as §1
Another test relates to RPMI-LR5 cells. As to the kind of experiment: XTT cytotoxicity, RPMI-LR5. The format is cell-based. The conditions noted are these: for IC50: RPMI-LR5, multiple myeloma, melphalan resistant, read-out: IC50; for IC50 ratio between resistant and non-resistant cells: RPMI-LR5 / RPMI 8226. Here is the method:
as §1

Another test concerns RPMI-MR20 cells. As to the kind of experiment: XTT cytotoxicity, RPMI-MR20. The format is cell-based. The conditions noted are these: for IC50: RPMI-MR20, mitoxantrone resistant, read-out: IC50; for IC50 ratio between resistant and non-resistant cells: RPMI-MR20 / RPMI 8226. Here is the method: as §1
The test system of the next test is MM1.S cells. Nature of the test: XTT cytotoxicity, MM1.S. The test is classed as cell-based. The settings on record: Homo sapiens, multiple myeloma, non-resistant, read-out: IC50. As to the method: as §1
Another test deals with MM1.R cells. Nature of the test: XTT cytotoxicity, MM1.R. The test is classed as cell-based. The settings on record: for IC50 ratio between resistant and non-resistant cells: MM1.R / MM1.S; for IC50: MM.1R, MM1.R, multiple myeloma, dexamethasone resistant, read-out: IC50. Here is the method:
as §1

The subject of the next test is NALM6 cells. As to the kind of experiment: XTT cytotoxicity, NALM6. The format is cell-based. The settings on record: Homo sapiens, NALM-6; NALM6, acute lymphoblastic leukemia, non-resistant; read-out: IC50. Here is the method: as §1
(§2) Most tubulin-binding anticancer drugs currently used in the clinic are substrates for Pgp effux pump. […] The inventors tested the viability of NALM6 acute lymphoblastic leukemia cell line (ALL) and its corresponding doxorubicin resistant N6/ADR cell line that overexpress Pgp glycoprotein and has cross-resistance to vincristine.

Another test deals with N6/ADR cells. As to the kind of experiment: XTT cytotoxicity, N6/ADR. The format is cell-based. The conditions noted are these: for IC50 ratio between resistant and non-resistant cells: N6/ADR / NALM6; for IC50: N6/ADR, acute lymphoblastic leukemia, P-gp overexpression, read-out: IC50. Here is the method: as §1, §2
Another test concerns MCF7 cells. As to the kind of experiment: XTT cytotoxicity, MCF7. The format is cell-based. The settings on record: Homo sapiens; MCF7, breast adenocarcinoma, non-resistant. As to the method:
as §1

Another test relates to MCF7-VP cells. As to the kind of experiment: XTT cytotoxicity, MCF7-VP. The format is cell-based. The conditions noted are these: for IC50: Homo sapiens, MCF7-VP, breast adenocarcinoma, MRP overexpression; for IC50 ratio between resistant and non-resistant cells: MCF7-VP / MCF7. As to the method: as §1
For a further test, the system named is MES-SA cells. As to the kind of experiment: XTT cytotoxicity, MES-SA. The test is classed as cell-based. The conditions noted are these: Homo sapiens, poorly differentiated uterine sarcoma, non-resistant. As to the method: as §1
The next test has as its system MES-SA/DX5 cells. Nature of the test: XTT cytotoxicity, MES-SA/DX5. The test is classed as cell-based. The settings on record: for IC50: Homo sapiens, MES-SA/DX5, uterine sarcoma, P-gp overexpression; for IC50 ratio between resistant and non-resistant cells: MES-SA/DX5 / MES-SA. Here is the method:
as §1

The test system of another test is purified tubulin. As to the kind of experiment: Tubulin polymerization, cell-free assay. The format is biochemical. The conditions noted are these: tubulin 2.00 mg/mL; 1, 15 and 30 μM; 37° C., 100 min; vs vehicle. As to the method: The effect of the compounds on their ability to inhibit tubulin polymerization, was tested against a vehicle control by evaluating polymerization of purified tubulin in a cell-free assay where tubulin (2.00 mg/mL) was exposed to vehicle control or 1, 15 and 30 μM of the compounds (n=2). Polymerizations were tracked by an increase in fluorescence excitation wavelength is 340-360 nm and emission wavelength at 410-460 nm. Fluorescence was monitored at 37° C. every 30 sec for 100 min.

The test system of test [1] is colchicine binding site on tubulin protein. As to the kind of experiment: EBI competition assay, RPMI-8226 cells. The format is cell-based. The settings on record: for prevention of covalent binding of EBI to the colchicine binding site: RPMI-8226 living cells.
The subject of the next test is RPMI8226 cells. As to the kind of experiment: Cell cycle distribution by flow cytometry. The test is classed as cell-based. The conditions noted are these: 6 hours; IC50, IC50x2.5 and IC50x5 concentrations. Here is the method: Cell cycle arrest is a shared consequence of MTAs treatment. The effects of cell cycle distribution were determined in RPMI8226 cells treated for 6 and 18 hours with a range of concentrations of the molecules. The cells were stained with propidium iodide and cell cycle distribution was measured using a cytoFLEX flow cytometer.

Take `Cc1c(C(=O)OCCCCO)[nH]c2c1C(=O)CC(c1ncco1)C2` (stereo not shown) [SMS096, 4-hydroxybutyl 3-methyl-6-(oxazol-2-yl)-4-oxo-4,5,6,7-tetrahydro-1H-indole-2-carboxylate]: the 50% inhibitory concentration (IC50) in the test with RPMI 8226 cells is 1.09 µM; in the test on RPMI-DOX40 cells, 1.18 µM; in the test with RPMI-LR5 cells it was 1.13 µM; in the test on RPMI-MR20 cells, above 1.8 µM; in the test on MM1.S cells, 0.748 µM; in the test with MM1.R cells it was 1.08 µM. Also, the IC50 in the test on NALM6 cells was 0.624 µM; in the test on N6/ADR cells, 0.054 µM; in the test with MCF7 cells, 7.84 µM; in the test on MCF7-VP cells, 5.74 µM; in the test on MES-SA cells, 1.24 µM; in the test on MES-SA/DX5 cells it was 1.43 µM. The “IC50 ratio between resistant and non-resistant cells” value with RPMI-DOX40 cells is given as 1.081; with RPMI-LR5 cells, 1.031; in the test on RPMI-MR20 cells, above 1.647; in the test on MM1.R cells it was 1.447; in the test on N6/ADR cells, 0.087; with MCF7-VP cells, 0.732. The “IC50 ratio between resistant and non-resistant cells” value in the test with MES-SA/DX5 cells is listed as 1.153. In addition, the “rate of tubulin polymerization” value with purified tubulin was “inhibited the rate of tubulin polymerization in a concentration-dependent manner”. Also, the “relative affinity for the colchicine binding site” value in test [1] (RPMI-8226 cells, EBI competition) was “higher affinity than SMS001, SMS182, SMS088 and SMS229”. Also, the “prevention of covalent binding of EBI to the colchicine binding site” value (shortened to “prevention of covalent binding of EBI”) in test [1] is listed as “prevented the covalent binding of EBI to the colchicine binding site”. Moreover, the cell cycle arrest result in the test on RPMI8226 cells is listed as “cell cycle arrest in G2M phase”.
On to `Cc1c(C(=O)OC2CCCC2)[nH]c2c1C(=O)CC(c1ncco1)C2` (stereo not shown) [SMS101, cyclopentyl 3-methyl-6-(oxazol-2-yl)-4-oxo-4,5,6,7-tetrahydro-1H-indole-2-carboxylate], for which the IC50 came out at 0.09 µM in the test on RPMI 8226 cells; 0.077 µM in the test on RPMI-DOX40 cells; 0.073 µM in the test on RPMI-LR5 cells; 0.099 µM in the test on RPMI-MR20 cells; 0.129 µM in the test on MM1.S cells; 0.51 µM in the test with MM1.R cells. For the same molecule, the IC50 in the test on NALM6 cells is 0.048 µM; with N6/ADR cells, 0.042 µM; in the test with MCF7 cells it was 11.9 µM; in the test with MCF7-VP cells, 0.351 µM; with MES-SA cells, 0.186 µM; in the test on MES-SA/DX5 cells, 0.213 µM. Moreover, the “IC50 ratio between resistant and non-resistant cells” value in the test with RPMI-DOX40 cells was determined as 0.856; with RPMI-LR5 cells, 0.811; in the test on RPMI-MR20 cells it was 1.100; in the test with MM1.R cells, 3.953; with N6/ADR cells, 0.875; with MCF7-VP cells, 0.029. Further, the “IC50 ratio between resistant and non-resistant cells” value in the test on MES-SA/DX5 cells is 1.145. Moreover, the “rate of tubulin polymerization” value with purified tubulin is given as “inhibited the rate of tubulin polymerization in a concentration-dependent manner”. In addition, the “prevention of covalent binding of EBI” value in [1] is recorded as “prevented the covalent binding of EBI to the colchicine binding site”. In the test on RPMI8226 cells, the cell cycle arrest result is given as “cell cycle arrest in G2M phase”.
With `CCCCCOC(=O)c1[nH]c2c(c1C)C(O)CC(c1ncco1)C2` (stereo not shown) [SMS108, pentyl-4-hydroxy-3-methyl-6-(oxazol-2-yl)-4,5,6,7-tetrahydro-1H-indole-2-carboxylate], the half-maximal inhibitory concentration (IC50) in the test with RPMI 8226 cells came out at 0.516 µM; with RPMI-DOX40 cells, 0.498 µM; in the test with RPMI-LR5 cells, 0.427 µM; with RPMI-MR20 cells it was 0.388 µM; with MM1.S cells, 0.735 µM; in the test on MM1.R cells, 1.2 µM. For the same molecule, the half-inhibitory concentration (IC50) in the test on NALM6 cells was found to be 0.345 µM; in the test with N6/ADR cells it was 0.33 µM; in the test with MCF7 cells, 7.12 µM; with MCF7-VP cells, 5.9 µM; in the test with MES-SA cells, 0.7 µM; with MES-SA/DX5 cells, 0.49 µM. For the same molecule, the “IC50 ratio between resistant and non-resistant cells” value is recorded as 0.965 with RPMI-DOX40 cells; 0.828 in the test on RPMI-LR5 cells; 0.752 in the test with RPMI-MR20 cells; 1.633 with MM1.R cells; 0.957 with N6/ADR cells; 0.828 in the test on MCF7-VP cells. Moreover, the “IC50 ratio between resistant and non-resistant cells” value with MES-SA/DX5 cells was 0.700. Moreover, in the test with purified tubulin, the “rate of tubulin polymerization” value is “inhibited the rate of tubulin polymerization in a concentration-dependent manner”. Also, the “prevention of covalent binding of EBI” value in test [1] is “did not prevent the covalent binding of EBI to the colchicine binding site”. Further, in the test on RPMI8226 cells, the cell cycle arrest entry is listed as “cell cycle arrest in G2M phase”.

The values are drawn from US20260226037A1, “MICROTUBULE TARGETING AGENTS” (ARIEL SCIENTIFIC INNOVATIONS LTD., priority 2022, published 2026).
